According to ChEMBL document CHEMBL5726454, “Protein tyrosine kinase modulators and methods of use” (2017):

Target: ALK tyrosine kinase receptor (Homo sapiens, UniProt Q9UM73)
Assay: 2.5 uL-4x Test Compound or 100 nL 100x plus 2.4 uL kinase buffer; 2. 5 uL-2x Peptide/Kinase Mixture; 3. 2.5 uL-4xATP Solution; 4. 30-second plate shake; 5. 60-minute Kinase Reaction incubation at room temperature; 6. 5 uL-Development Reagent Solution; 7. 30-second plate shake; 8. 60-minute Development Reaction incubation at room temperature; 9. […] After the 1 hour Kinase Reaction incubation, 5 uL of a 1:256 dilution of Development Reagent B is added.

ALK tyrosine kinase receptor, sequence (Q9UM73 whole entry): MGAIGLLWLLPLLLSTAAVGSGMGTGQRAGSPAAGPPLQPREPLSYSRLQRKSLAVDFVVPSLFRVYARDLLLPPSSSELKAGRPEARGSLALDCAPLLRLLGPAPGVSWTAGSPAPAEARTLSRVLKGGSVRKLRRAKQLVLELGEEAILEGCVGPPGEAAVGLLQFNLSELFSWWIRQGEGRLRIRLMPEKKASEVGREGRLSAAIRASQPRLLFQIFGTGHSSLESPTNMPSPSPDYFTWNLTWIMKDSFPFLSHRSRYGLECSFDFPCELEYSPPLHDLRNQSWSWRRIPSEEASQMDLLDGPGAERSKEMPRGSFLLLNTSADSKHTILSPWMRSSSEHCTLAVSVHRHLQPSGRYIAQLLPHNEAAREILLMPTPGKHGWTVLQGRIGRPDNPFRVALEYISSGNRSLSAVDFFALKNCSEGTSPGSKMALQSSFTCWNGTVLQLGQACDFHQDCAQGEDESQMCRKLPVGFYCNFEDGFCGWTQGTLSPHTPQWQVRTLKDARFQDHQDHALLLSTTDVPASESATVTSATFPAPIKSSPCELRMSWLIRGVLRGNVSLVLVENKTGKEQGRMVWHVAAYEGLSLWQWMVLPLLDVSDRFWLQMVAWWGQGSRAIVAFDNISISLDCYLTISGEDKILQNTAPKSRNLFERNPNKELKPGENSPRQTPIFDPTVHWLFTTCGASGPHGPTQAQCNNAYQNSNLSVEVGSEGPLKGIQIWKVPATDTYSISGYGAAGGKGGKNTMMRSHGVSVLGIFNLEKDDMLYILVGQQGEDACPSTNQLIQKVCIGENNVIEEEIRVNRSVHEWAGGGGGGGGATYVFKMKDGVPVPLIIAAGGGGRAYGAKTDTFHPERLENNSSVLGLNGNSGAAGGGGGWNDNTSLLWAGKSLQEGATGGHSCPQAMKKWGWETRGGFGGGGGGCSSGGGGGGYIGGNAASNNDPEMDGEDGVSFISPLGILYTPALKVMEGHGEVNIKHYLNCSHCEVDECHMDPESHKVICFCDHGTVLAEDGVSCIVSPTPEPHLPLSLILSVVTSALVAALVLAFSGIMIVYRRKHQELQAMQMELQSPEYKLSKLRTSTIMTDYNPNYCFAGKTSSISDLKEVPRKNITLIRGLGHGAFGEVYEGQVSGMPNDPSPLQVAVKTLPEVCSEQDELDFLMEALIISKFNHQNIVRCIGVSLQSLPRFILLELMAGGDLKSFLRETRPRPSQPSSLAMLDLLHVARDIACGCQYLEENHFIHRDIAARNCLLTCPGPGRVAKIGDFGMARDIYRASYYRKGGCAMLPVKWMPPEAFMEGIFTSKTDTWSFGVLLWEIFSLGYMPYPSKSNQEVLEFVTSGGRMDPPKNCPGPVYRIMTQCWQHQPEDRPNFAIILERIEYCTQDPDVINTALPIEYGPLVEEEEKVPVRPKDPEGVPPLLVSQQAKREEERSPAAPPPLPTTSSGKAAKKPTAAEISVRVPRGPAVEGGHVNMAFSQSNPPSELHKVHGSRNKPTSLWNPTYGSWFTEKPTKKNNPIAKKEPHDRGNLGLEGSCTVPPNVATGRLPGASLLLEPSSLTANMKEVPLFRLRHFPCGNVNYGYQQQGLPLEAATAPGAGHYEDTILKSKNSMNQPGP

COc1cc(N2CCC(N(C)C)CC2)ccc1Nc1ncc(Cl)c(Nc2ccccc2C(=O)C(N)=O)n1 gave an IC50 of 27.9 nM.
